Tested on: IL-1β release from THP-1 cells
Assay: IL-1β Release Assay (Alternate Method), THP-1 cells
Type: cell-based, human
Settings: at 0.3 μM; THP-1 cells
In short: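 IL-1β release, measured by ELISA, follows 45 min BzATP (250 uM final) stimulation of THP-1 cells given 30 min compound pretreatment. Cells were first primed 16 h with LPS and IFN-γ (100 ng/mL each), then 2 h with fresh LPS; inhibition expressed in percent after background correction.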

Row | SMILES | IL-1β % inhibition
1 | O=C(O)COc1ccccc1CN1CCc2c(ncnc2NC(=O)CC23CC4CC(CC(C4)C2)C3)C1 [Compound 141] | + (compound exhibited 0-25% inhibition at 0.3 μM)
2 | O=C(CC12CC3CC(CC(C3)C1)C2)Nc1ncnc2c1CCN(C(=O)C1CCCC1)C2 [Compound 238] | ++++ (compound exhibited 75% or greater inhibition at 0.3 μM)
3 | O=C(NCC1CCCCC1)c1ncnc2c1CCN(Cc1ccccc1)C2 [Compound 4] | + (compound exhibited 0-25% inhibition at 0.3 μM)
4 | Cc1cccc(CN2CCc3c(ncnc3NC(=O)CC34CC5CC(CC(C5)C3)C4)C2)n1 [Compound 118] | + (compound exhibited 0-25% inhibition at 0.3 μM)
5 | O=C(CC12CC3CC(CC(C3)C1)C2)Nc1ncnc2c1CCN(Cc1ccc(C(F)(F)F)cc1C(F)(F)F)C2 [Compound 327] | + (compound exhibited 0-25% inhibition at 0.3 μM)
6 | CN1CCOc2cc(S(=O)(=O)N3CCc4c(ncnc4NC(=O)CC45CC6CC(CC(C6)C4)C5)C3)ccc21 [Compound 157] | + (compound exhibited 0-25% inhibition at 0.3 μM)
7 | CCN1CCc2c(ncnc2NC(=O)CC23CC4CC(CC(C4)C2)C3)C1 [Compound 8] | + (compound exhibited 0-25% inhibition at 0.3 μM)
8 | CC12CC3CC(C)(C1)CC(CC(=O)Nc1ncnc4c1CCN(S(=O)(=O)Cc1ccccc1)C4)(C3)C2 [Compound 377] | ++++ (compound exhibited 75% or greater inhibition at 0.3 μM)
9 | O=C(NCC1CCCCC1)c1ncnc2c1CCN(Cc1ccc(Cl)cc1)C2 [Compound 51] | + (compound exhibited 0-25% inhibition at 0.3 μM)
10 | O=C(CC12CC3CC(CC(C3)C1)C2)Nc1ncnc2c1CCN(C(=O)c1cccc(C(F)(F)F)c1)C2 [Compound 233] | ++++ (compound exhibited 75% or greater inhibition at 0.3 μM)
11 | O=C(CC12CC3CC(CC(C3)C1)C2)Nc1ncnc2c1CCN(Cc1ccc(C(F)(F)F)cc1)C2 [Compound 72] | + (compound exhibited 0-25% inhibition at 0.3 μM)
12 | O=C(CC12CC3CC(CC(C3)C1)C2)Nc1ncnc2c1CCN(C(=O)c1ccccc1C(F)(F)F)C2 [Compound 270] | + (compound exhibited 0-25% inhibition at 0.3 μM)
13 | O=C(NCC12CC3CC(CC(C3)C1)C2)c1ncnc2c1CCN(Cc1ccc3c(c1)OCCO3)C2 [Compound 138] | ++++ (compound exhibited 75% or greater inhibition at 0.3 μM)
14 | COc1ccccc1CN1CCc2c(ncnc2NC(=O)CC23CC4CC(CC(C4)C2)C3)C1 [Compound 29] | + (compound exhibited 0-25% inhibition at 0.3 μM)
15 | CCc1ccc(C(=O)N2CCc3c(ncnc3NC(=O)CC34CC5CC(CC(C5)C3)C4)C2)cc1 [Compound 229] | +++ (compound exhibited 50-75% inhibition at 0.3 μM)
16 | COc1ccc(C(=O)N2CCc3c(ncnc3NC(=O)CC34CC5CC(CC(C5)C3)C4)C2)cc1 [Compound 234] | ++ (compound exhibited 25-50% inhibition at 0.3 μM)
17 | O=C(CC12CC3CC(CC(C3)C1)C2)Nc1ncnc2c1CCN(C(=O)CCC1CCCC1)C2 [Compound 231] | ++ (compound exhibited 25-50% inhibition at 0.3 μM)
18 | COc1ccc(CN2CCc3c(ncnc3NC(=O)CC34CC5CC(CC(C5)C3)C4)C2)c(OC)c1 [Compound 30] | ++++ (compound exhibited 75% or greater inhibition at 0.3 μM)
19 | O=C(CC12CC3CC(CC(C3)C1)C2)Nc1ncnc2c1CCN(Cc1ccccc1C(F)(F)F)C2 [Compound 120] | + (compound exhibited 0-25% inhibition at 0.3 μM)
20 | CC(C)(C(=O)Nc1ncnc2c1CCN(C(=O)c1cccc(C(F)(F)F)c1)C2)C12CC3CC(CC(C3)C1)C2 [Compound 359] | + (compound exhibited 0-25% inhibition at 0.3 μM)
21 | COc1ccc(CN2CCc3c(ncnc3NC(=O)CC34CC5CC(CC(C5)C3)C4)C2)cc1C [Compound 39] | + (compound exhibited 0-25% inhibition at 0.3 μM)
22 | CC12CC3CC(C)(C1)CC(CC(=O)Nc1ncnc4c1CCN(Cc1ccc(F)cc1)C4)(C3)C2 [Compound 376] | ++ (compound exhibited 25-50% inhibition at 0.3 μM)
23 | COc1ccccc1CCC(=O)Nc1ncnc2c1CCN(Cc1ccncc1)C2 [Compound 133] | + (compound exhibited 0-25% inhibition at 0.3 μM)
24 | N#Cc1cc(CN2CCc3c(ncnc3NC(=O)CC34CC5CC(CC(C5)C3)C4)C2)ccc1F [Compound 84] | + (compound exhibited 0-25% inhibition at 0.3 μM)
25 | COc1ccc(C)cc1S(=O)(=O)N1CCc2c(ncnc2NC(=O)CC23CC4CC(CC(C4)C2)C3)C1 [Compound 214] | + (compound exhibited 0-25% inhibition at 0.3 μM)

Same assay, conditions: at 0.3 μM; THP-1 cells, BzATP-stimulated

Row | SMILES | IL-1β % inhibition
26 | COc1ccc(-c2ccc(S(=O)(=O)N3CCc4c(ncnc4NC(=O)C45CC6CC(CC(C6)C4)C5)C3)cc2)cc1 [Compound 512] | ++ (compound exhibited 25-50% inhibition at 0.3 μM)
27 | O=C(Nc1ncnc2c1CCN(Cc1ccc(Cl)c(Cl)c1)C2)C12CC3CC(CC(C3)C1)C2 [Compound 590] | + (compound exhibited 0-25% inhibition at 0.3 μM)
28 | CS(=O)(=O)N1CCc2c(ncnc2NC(=O)C23CC4CC(CC(C4)C2)C3)C1 [Compound 480] | + (compound exhibited 0-25% inhibition at 0.3 μM)
29 | O=C(c1ccc(Cl)nc1)N1CCc2c(ncnc2NC(=O)C23CC4CC(CC(C4)C2)C3)C1 [Compound 453] | + (compound exhibited 0-25% inhibition at 0.3 μM)
30 | O=C(c1ccc(Cl)cc1Cl)N1CCc2c(ncnc2NC(=O)C23CC4CC(CC(C4)C2)C3)C1 [Compound 430] | ++ (compound exhibited 25-50% inhibition at 0.3 μM)
31 | Cc1cc(C(=O)N2CCc3c(ncnc3NC(=O)C34CC5CC(CC(C5)C3)C4)C2)c(C)o1 [Compound 463] | ++ (compound exhibited 25-50% inhibition at 0.3 μM)
32 | O=C(c1ccc(F)cc1F)N1CCc2c(ncnc2NC(=O)C23CC4CC(CC(C4)C2)C3)C1 [Compound 449] | ++ (compound exhibited 25-50% inhibition at 0.3 μM)
33 | Cc1ccccc1S(=O)(=O)N1CCc2c(ncnc2NC(=O)C23CC4CC(CC(C4)C2)C3)C1 [Compound 533] | +++ (compound exhibited 50-75% inhibition at 0.3 μM)
34 | O=C(Nc1ncnc2c1CCN(S(=O)(=O)c1cc(C(F)(F)F)ccc1Cl)C2)C12CC3CC(CC(C3)C1)C2 [Compound 514] | + (compound exhibited 0-25% inhibition at 0.3 μM)
35 | O=C(Nc1ncnc2c1CCN(S(=O)(=O)c1ccc(F)cc1)C2)C12CC3CC(CC(C3)C1)C2 [Compound 490] | +++ (compound exhibited 50-75% inhibition at 0.3 μM)
36 | O=C(c1ccc(C(F)(F)F)cc1)N1CCc2c(ncnc2NC(=O)C23CC4CC(CC(C4)C2)C3)C1 [Compound 415] | + (compound exhibited 0-25% inhibition at 0.3 μM)
37 | O=C(c1ccc(F)cc1)N1CCc2c(ncnc2NC(=O)C23CC4CC(CC(C4)C2)C3)C1 [Compound 423] | ++ (compound exhibited 25-50% inhibition at 0.3 μM)
38 | O=C(Nc1ncnc2c1CCN(S(=O)(=O)c1ccc(Cl)cc1F)C2)C12CC3CC(CC(C3)C1)C2 [Compound 536] | ++ (compound exhibited 25-50% inhibition at 0.3 μM)
39 | O=C(Nc1ncnc2c1CCN(S(=O)(=O)Cc1cc(Cl)cc(Cl)c1)C2)C12CC3CC(CC(C3)C1)C2 [Compound 519] | +++ (compound exhibited 50-75% inhibition at 0.3 μM)
40 | O=C(Cc1ccccc1Br)N1CCc2c(ncnc2NC(=O)C23CC4CC(CC(C4)C2)C3)C1 [Compound 470] | + (compound exhibited 0-25% inhibition at 0.3 μM)

— patent US7297700B2, “Bicycloheteroaryl compounds as P2X7 modulators and uses thereof” (Renovis, Inc., priority 2005, dated 2007)
